Experimental data: patent US9556179B2 (BRISTOL-MYERS SQUIBB COMPANY, priority 2012, dated 2017)

Experiments:
pancreatic tumor cell = conditions: in vitro and in vivo; Brockschmidt et al., Gut 2008; cited from earlier work
CK1δ = CK1δ (Homo sapiens (Human), UniProt P48730); test: CK1δ kinase assay (Caliper LABCHIP electrophoretic separation of fluoresceinated peptide substrate and product); type: biochemical; conditions: 200 pM enzyme, 50 μM ATP, 22 hours at room temperature
Outline: (§1)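 Each reaction was incubated 22 hours at room temperature and terminated with EDTA. Read-out was microfluidic electrophoretic separation of fluoresceinated substrate and phospho-product.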

CK1ε = CK1ε (Homo sapiens (Human), UniProt P49674); test: CK1ε kinase assay (Caliper LABCHIP electrophoretic separation of fluoresceinated peptide substrate and product); type: biochemical; conditions: 200 pM enzyme, 50 μM ATP, 22 hours at room temperature
Outline: as §1

CK1ε, sequence (P49674 whole entry): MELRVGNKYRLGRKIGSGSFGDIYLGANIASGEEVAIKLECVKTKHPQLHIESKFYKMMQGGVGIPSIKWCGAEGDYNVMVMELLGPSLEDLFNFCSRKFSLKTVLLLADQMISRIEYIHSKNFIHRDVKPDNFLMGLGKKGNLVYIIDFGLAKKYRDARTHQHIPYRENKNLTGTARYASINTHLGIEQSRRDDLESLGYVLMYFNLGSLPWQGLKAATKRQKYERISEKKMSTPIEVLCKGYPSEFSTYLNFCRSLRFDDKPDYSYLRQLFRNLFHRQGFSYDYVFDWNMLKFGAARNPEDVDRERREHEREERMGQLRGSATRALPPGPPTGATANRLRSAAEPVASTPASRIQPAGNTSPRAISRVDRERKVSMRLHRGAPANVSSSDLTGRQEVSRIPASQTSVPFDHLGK
CK1δ, sequence (P48730 whole entry): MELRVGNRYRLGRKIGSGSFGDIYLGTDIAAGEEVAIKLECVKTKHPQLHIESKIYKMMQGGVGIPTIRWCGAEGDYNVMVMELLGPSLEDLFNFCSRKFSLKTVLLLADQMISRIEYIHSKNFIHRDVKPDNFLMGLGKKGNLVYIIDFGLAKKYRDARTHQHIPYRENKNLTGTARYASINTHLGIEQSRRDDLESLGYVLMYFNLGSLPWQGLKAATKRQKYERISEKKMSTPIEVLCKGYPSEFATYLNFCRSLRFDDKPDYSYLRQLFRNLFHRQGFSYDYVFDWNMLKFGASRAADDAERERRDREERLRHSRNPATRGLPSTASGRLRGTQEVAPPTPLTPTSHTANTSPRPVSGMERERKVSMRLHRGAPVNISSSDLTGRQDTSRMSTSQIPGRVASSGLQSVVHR

With COc1cc(OC)c(C=C2C(O)=Nc3ccccc32)c(OC)c1 [IC261] as the compound, how does the “pancreatic tumor cell growth” value (pancreatic tumor cell) read?
Its value is “reduces pancreatic tumor cell growth in vitro and in vivo”.

What does the source list for Cn1ccc(C(=O)N2CCC(n3cnc(-c4ccc(F)cc4)c3-c3ccc4nc(NC(=O)c5ccnc(F)c5)cn4n3)CC2)n1 [Compound 60, 2-fluoro-N-(6-(4-(4-fluorophenyl)-1-(1-(1-methyl-1H-pyrazole-3-carbonyl)piperidin-4-yl)-1H-imidazol-5-yl)imidazo[1,2-b]pyridazin-2-yl)isonicotinamide]?
IC50 (CK1δ): 0.213 nM; IC50 (CK1ε): 0.545 nM

With Cc1nc(-c2ccc(F)cc2)c(-c2ccc3nc(NC(=O)c4ccon4)cn3n2)n1C [Compound 375, N-(6-(4-(4-fluorophenyl)-1,2-dimethyl-1H-imidazol-5-yl)imidazo[1,2-b]pyridazin-2-yl)-3-isoxazolecarboxamide] as the compound, how does the IC50 (CK1δ) read?
Its IC50 is 1.91 nM.

What about the IC50 (CK1ε) of the same compound?
The IC50 was 16.3 nM.

With CC(C)(C)C(=O)Nc1cn2nc(-c3c(-c4ccc(F)cc4)ncn3CC3CNC(=O)C3)ccc2n1 (stereo not drawn) [Compound 277, N-(6-(4-(4-fluorophenyl)-1-((5-oxo-pyrrolidin-3-yl)methyl)-1H-imidazol-5-yl)imidazo[1,2-b]pyridazin-2-yl)pivalamide] as the compound, how does the IC50 (CK1δ) read?
Its IC50 is 0.238 nM.

What about the IC50 (CK1ε) of the same compound?
The IC50 was 3.82 nM.

What does the source list for Cc1nc(-c2ccc(F)cc2)c(-c2ccc3nc(NC(=O)c4cc(C(C)(C)C)ncn4)cn3n2)n1C [Compound 400, 6-(tert-butyl)-N-(6-(4-(4-fluorophenyl)-1,2-dimethyl-1H-imidazol-5-yl)imidazo[1,2-b]pyridazin-2-yl) pyrimidine-4-carboxamide]?
IC50 (CK1δ): 6.76 nM; IC50 (CK1ε): 23.3 nM

For O=C1CN(CCn2cnc(-c3ccc(F)cc3)c2-c2ccc3nc(NC(=O)c4ccnc(F)c4)cn3n2)CCN1 [Compound 267, 2-fluoro-N-(6-(4-(4-fluorophenyl)-1-(2-(3-oxo-1-piperazinyl)ethyl)-1H-imidazol-5-yl)imidazo[1,2-b]pyridazin-2-yl)isonicotinamide], which IC50 (CK1δ) is on record?
The IC50 was 0.287 nM.

And the IC50 (CK1ε)?
Its IC50 is 1.77 nM.

With COCCn1cnc(-c2ccc(F)cc2)c1-c1ccc2nc(NC(=O)C(C)(C)C)cn2n1 [Compound 280, N-(6-(4-(4-fluorophenyl)-1-(2-methoxy-ethyl)-1H-imidazol-5-yl)imidazo[1,2-b]pyridazin-2-yl)pivalamide] as the compound, how does the IC50 (CK1δ) read?
Its IC50 is 0.52 nM.

What about the IC50 (CK1ε) of the same compound?
Its IC50 is 2.49 nM.

For Cc1nc(-c2ccc(F)cc2)c(-c2ccc3nc(NC(=O)c4c[nH]c5ncccc45)cn3n2)n1C [Compound 343, N-(6-(4-(4-fluorophenyl)-1,2-dimethyl-1H-imidazol-5-yl)imidazo[1,2-b]pyridazin-2-yl)-1H-pyrrolo[2,3-b] pyridine-3-carboxamide], which IC50 (CK1δ) is on record?
The IC50 was 0.921 nM.

What about the IC50 (CK1ε) of the same compound?
The IC50 was 2.17 nM.
